Legend:
Solubility in water = format: physicochemical
[1] = Quantification of sphingosine on the coated surface by mass spectrometry; format: physicochemical; conditions: mass spectrometry (FIG. 18A)
Protocol: Coated plastic surfaces were extracted by a one-step lipid extraction. Briefly, a plastic piece was transferred into a siliconized glass tube and adsorbed sphingosine was extracted by addition of 10 mL methanol and sonification on ice for 1 hour. After centrifugation, the lipid extract was diluted with methanol and 50 pmol of C17-sphingosine was added as internal standard. […] Ion funnel parameters were: high pressure RF voltage 110 V and low pressure RF voltage 60 V. Multiple reaction monitoring (MRM) transition 300.3 m/z>282.3 m z at 8 eV collision energy was used for quantification of sphingosine, whereas MRM transition 286.3 m/z>268.3 m/z at 8 eV collision energy was used for quantification of C17-sphingosine. Quantification was performed with Mass Hunter Software (Agilent Technologies).
To determine the total amount of sphingosine present on the surface of the endotracheal tubes after dip coating, we performed mass spectrometry (FIG. 18A) and a sphingosine kinase radioactivity assay (FIG. 18B). […] Sphingosine was either extracted and analyzed by mass spectrometry (FIG. 18A) or sphingosine kinase assay (FIG. 18B). The amount of sphingosine calculated on the surface after dip coating is (A) 131 nmol/cm^2 and (B) 152.5 nmol/cm^2, respectively.

[2] = inhalation, cited from earlier work
[3] = Quantification of sphingosine on the coated surface by sphingosine kinase assay; format: physicochemical; conditions: sphingosine kinase assay (FIG. 18B)
Protocol: Plastic pieces were extracted in CHCl3/CH3OH/1N HCl (100:100:1, v/v/v), the lower phase was dried and resuspended in a detergent solution (7.5% [w/v] n-octyl glucopyranoside, 5 mM cardiolipin in 1 mM diethylenetriaminepentaacetic acid (DTPA)). The kinase reaction was initiated by addition of 0.004 units sphingosine kinase in 50 mM HEPES (pH 7.4), 250 mM NaCl, 30 mM MgCl2 1 μM ATP and 5 μCi [^32P]γATP. Samples were incubated for 60 min at 37° C. with shaking (350 rpm), then extracted in 20 μl 1N HCl, 800 μl CHCl3/CH3OH/1N HCl (100:200:1, v/v/v), 240 μl CHCl3 and 2 M KCl. The lower phase was collected, dried, dissolved in 20 μL of CHCl3:CH3OH (1:1, v/v) and separated on Silica G60 thin layer chromatography (TLC) plates using CHCl3/CH3OH/acetic acid/H2O (90:90:15:5, v/v/v/v) for SPH. The TLC plates were analyzed using a phosphoimager.
To determine the total amount of sphingosine present on the surface of the endotracheal tubes after dip coating, we performed mass spectrometry (FIG. 18A) and a sphingosine kinase radioactivity assay (FIG. 18B). Both methods confirmed a concentration of sphingosine in the nmol to μmol range per cm^2. […] Sphingosine was either extracted and analyzed by mass spectrometry (FIG. 18A) or sphingosine kinase assay (FIG. 18B). The amount of sphingosine calculated on the surface after dip coating is (A) 131 nmol/cm^2 and (B) 152.5 nmol/cm^2, respectively.

| Structure (SMILES) | solubility in water (Solubility in water) | amount of sphingosine calculated on the surface after dip coating [1] [nmol/cm^2] | observable toxicity ([2]; mice) | rates of pneumonia ([2]; susceptible mice) | amount of sphingosine calculated on the surface after dip coating [3] [nmol/cm^2] |
| --- | --- | --- | --- | --- | --- |
| CCCCCCCCCCCCCC[C@@H](O)[C@@H](O)[C@@H](N)CO [phytosphingosine, D-ribo-phytosphingosine] | nearly completely insoluble in water | – | – | – | – |
| CCCCCCCCCCCCC/C=C/[C@@H](O)[C@@H](N)CO [sphingosine, D-erythrosphingosine (d18:1)] | nearly completely insoluble in water | 131 | did not result in any observable toxicity | reduce rates of pneumonia in susceptible mice | 152.5 |

Source: US12186457B2, “Sphingolipid coatings and process for manufacturing sphingolipid coatings effective for inhibiting biofilm formation” (UNIVERSITY OF CINCINNATI, priority 2015, dated 2025)
